Results: publication PMC11477294, “In Vitro Profiling of the Antiviral Peptide TAT-I24” (International Journal of Molecular Sciences, 2024)
Where a SMILES comes first, the peptide text is derived from it.

Key:
DiO-labeled MCMV = assay: Entry of DiO-labeled MCMV (microscopy); type: cell-based, mouse cytomegalovirus; conditions: 10 µM peptide, NIH/3T3 cells, 120 min post-infection, MOI approximately 5
Protocol: DiO labeling was performed by incubation of MCMV (2 × 10^7 pfu) with 5 µL of Vybrant™ DiO Cell-Labeling Solution in 300 µL cell culture medium supplemented with 10% FCS for 20 min at 37 °C. After that, the virus was precipitated overnight at 4 °C by addition of 600 µL autoclaved solution of polyethylene glycol/sodium chloride (30% (w/v) PEG-8000 (Sigma Aldrich, Schnelldorf, Germany), 10.5% NaCl (w/v) in PBS, followed by centrifugation on the next day for one hour at 1600× g at 4 °C. Supernatants were discarded, and the precipitated virus was resuspended in 500 µL cell culture medium supplemented with 10% FCS, aliquoted and stored at −80 °C.
NIH/3T3 cells were seeded at a density of 2 × 10^4 cells/250 µL per well in ibiTreat 8-well chambers (ibidi, Germany) and allowed to attach overnight at 37 °C. On the next day, cells were treated with peptides and infected with DiO-labeled MCMV corresponding to an MOI of approximately 5 with the aid of centrifugal enhancement, twice at 800× g for 15 min. After 2 h of incubation, cells were washed twice with PBS and fixed with 5% formaldehyde for 1 h at room temperature. Then, cells were stained with DAPI for 15 min, as described above. […]

cells = conditions: not associated with cell toxicity; cited from earlier work
[1] = Oligomerization/aggregation by SDS-PAGE with Coomassie stain; type: physicochemical; conditions: 48 h at 37 °C in PBS or PBS with 10% FCS
Protocol: For determination of peptide stability, 20 µg peptide was added to 50 µL PBS or PBS with 10% FCS and incubated for 48 h at 37 °C or stored at −20 °C. For non-reducing conditions, 4 µL peptide solution was mixed with 1 µL H2O and 5 µL Novex™ Tricine SDS Sample Buffer (2×) (ThermoFisher, Darmstadt, Germany). For reducing conditions, 4 µL peptide solution was mixed with 1 µL NuPAGE™ Sample Reducing Agent (10×) (Invitrogen by Thermo Fisher Scientific) and 5 µL Novex™ Tricine SDS Sample Buffer (2×). Samples were then heated to 85 °C for 10 min. A total of 10 µL was then loaded onto each well of 10–20% Novex™ Tricine, 1.0 mm, Mini Protein Gels (Invitrogen/ThermoFisher, Waltham, MA, USA) and run in 1× Novex™ Tricine SDS Running Buffer (Invitrogen/ThermoFisher, Waltham, MA, USA) for 90 min at 100 V. After electrophoresis, gels were fixed with 40% methanol and 10% acetic acid followed by staining with 0.1% Coomassie brilliant blue R250 (Sigma-Aldrich, Schnelldorf, Germany) in 40% methanol and 10% acetic acid for one hour and destaining using fixing solution.

Compound: CC(C)C[C@H](NC(=O)[C@H](CS)NC(=O)[C@H](CCC(N)=O)NC(=O)[C@@H]1CCCN1C(=O)[C@@H]1CCCN1C(=O)[C@H](CCCNC(=N)N)NC(=O)[C@H](CCCNC(=N)N)NC(=O)[C@H](CCCNC(=N)N)NC(=O)[C@H](CCC(N)=O)NC(=O)[C@H](CCCNC(=N)N)NC(=O)[C@H](CCCNC(=N)N)NC(=O)[C@H](CCCCN)NC(=O)[C@H](CCCCN)NC(=O)[C@H](CCCNC(=N)N)NC(=O)CN)C(=O)N[C@@H](C)C(=O)N[C@@H](Cc1ccccc1)C(=O)N[C@@H](Cc1ccc(O)cc1)C(=O)N[C@@H](C)C(=O)N[C@@H](CS)C(=O)N[C@@H](Cc1ccccc1)C(=O)N[C@@H](CS)C(=O)O [TAT-I24] (H-GRKKRRQRRRPPQCLAFYACFC-OH)
- organization of fluorescent signal of DiO-labeled MCMV in cells (DiO-labeled MCMV): less perinuclear organization and was more dispersed in the whole cytoplasm
- concentration with morphological changes such as cell aggregation (cells): > 10 µM
- oligomer formation, SDS-PAGE under reducing conditions ([1]; 10–20% Tricine gel, Coomassie Brilliant Blue stain): additional weak higher molecular weight smear around 45 kDa
- oligomer formation, SDS-PAGE under non-reducing conditions ([1]; SDS loading buffer without reducing agent, Coomassie stain): only faint bands of monomers
